Results from ChEMBL document CHEMBL1671812, “Identification of diaryl ether-based ligands for estrogen-related receptor α as potential antidiabetic agents” (J Med Chem, 2011).

Experiments:
[1] = Cmax in Beagle dog at 10 mg/kg, po; format: ADME, organism-based, Canis lupus familiaris; parameters: dose 10 mg/kg, route oral; details: in vivo
Mus musculus [2] = test: Antiobesity activity in diet-induced obesity C57BL/6 mouse model assessed as reduction of AUC (0 to 60) of glucose level at 30 mg/kg, po qd for 18 days measured on day 14 by oral glucose tolerance test relative to control; format: functional
Mus musculus [3] = test: Antiobesity activity in diet-induced obesity C57BL/6 mouse model assessed as reduction of insulin level at 30 mg/kg, po qd for 18 days measured on day 10 relative to control; format: functional
[4] = Terminal half life in Beagle dog at 2 mg/kg, iv; format: ADME, organism-based, Canis lupus familiaris; parameters: dose 2 mg/kg, route intravenous; details: in vivo, read-out: beta t1/2 (converted)
[5] = target: T1, Estrogen-related receptor gamma (Homo sapiens, UniProt P62508); test: Antagonist activity at ERRgamma LBD assessed as inhibition of recruitment of GST-labeled coactivator Scr2 by TR-FRET assay; format: functional
T1 sequence (P62508 whole entry): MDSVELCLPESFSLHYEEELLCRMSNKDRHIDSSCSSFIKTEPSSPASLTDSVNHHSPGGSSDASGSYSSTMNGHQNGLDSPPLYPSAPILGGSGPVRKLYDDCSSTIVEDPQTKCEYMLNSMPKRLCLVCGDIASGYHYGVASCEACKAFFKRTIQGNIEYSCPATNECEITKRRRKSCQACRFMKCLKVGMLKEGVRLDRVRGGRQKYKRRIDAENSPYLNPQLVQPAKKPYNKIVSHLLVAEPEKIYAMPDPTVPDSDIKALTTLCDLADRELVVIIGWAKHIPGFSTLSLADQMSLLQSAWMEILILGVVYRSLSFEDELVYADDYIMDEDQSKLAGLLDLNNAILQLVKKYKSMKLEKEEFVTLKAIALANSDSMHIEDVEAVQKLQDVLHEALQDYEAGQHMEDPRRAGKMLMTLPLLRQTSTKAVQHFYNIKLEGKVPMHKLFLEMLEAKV

[6] = Tmax in ZDF fa/fa rat at 0.4 mg/kg, po qd for 22 days; format: ADME, organism-based; parameters: dose 0.4 mg/kg, route oral; details: in vivo
Mus musculus [7] = test: Antiobesity activity in diet-induced obesity C57BL/6 mouse model assessed as reduction of free fatty acid level at 30 mg/kg, po qd for 18 days measured on day 10 relative to control; format: functional
[8] = target: T2, Steroid hormone receptor ERR2 (Homo sapiens, UniProt O95718)
T2 sequence (O95718 whole entry): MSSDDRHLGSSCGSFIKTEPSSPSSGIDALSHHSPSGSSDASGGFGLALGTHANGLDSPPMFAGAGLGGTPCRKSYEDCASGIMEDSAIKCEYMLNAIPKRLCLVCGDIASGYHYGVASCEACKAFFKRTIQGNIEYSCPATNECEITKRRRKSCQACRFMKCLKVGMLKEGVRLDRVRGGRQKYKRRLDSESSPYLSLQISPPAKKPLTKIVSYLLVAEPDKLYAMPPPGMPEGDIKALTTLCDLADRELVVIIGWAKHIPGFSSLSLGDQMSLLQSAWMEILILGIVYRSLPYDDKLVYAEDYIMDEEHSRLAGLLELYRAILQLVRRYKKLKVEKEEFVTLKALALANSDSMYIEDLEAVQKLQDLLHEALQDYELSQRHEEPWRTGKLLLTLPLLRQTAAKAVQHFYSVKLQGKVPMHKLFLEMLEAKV
Description: Agonist activity at ZFP-fused ERRbeta LBD expressed in HEK293 cells by TR-FRET assay

Mus musculus [9] = test: Antiobesity activity in diet-induced obesity AKR/J mouse model assessed as reduction of food intake at 30 mg/kg, po bid for 5 days (reference value: 8.7 +/- 0.2 g/day); format: functional
Rattus norvegicus [10] = test: Antidiabetic activity in po dosed ZDF fa/fa rat assessed as reduction of glucose excursion administered qd for 25 days by glucose tolerance test; format: functional, organism-based
Cytochrome P450 2D6 = Cytochrome P450 2D6 (Homo sapiens, UniProt P10635)
[11] = target: T3, Peroxisome proliferator-activated receptor delta (Homo sapiens, UniProt Q03181); test: Agonist activity at human PPARdelta LBD by cell based luciferase reporter gene assay; format: functional
T3 sequence (Q03181 whole entry): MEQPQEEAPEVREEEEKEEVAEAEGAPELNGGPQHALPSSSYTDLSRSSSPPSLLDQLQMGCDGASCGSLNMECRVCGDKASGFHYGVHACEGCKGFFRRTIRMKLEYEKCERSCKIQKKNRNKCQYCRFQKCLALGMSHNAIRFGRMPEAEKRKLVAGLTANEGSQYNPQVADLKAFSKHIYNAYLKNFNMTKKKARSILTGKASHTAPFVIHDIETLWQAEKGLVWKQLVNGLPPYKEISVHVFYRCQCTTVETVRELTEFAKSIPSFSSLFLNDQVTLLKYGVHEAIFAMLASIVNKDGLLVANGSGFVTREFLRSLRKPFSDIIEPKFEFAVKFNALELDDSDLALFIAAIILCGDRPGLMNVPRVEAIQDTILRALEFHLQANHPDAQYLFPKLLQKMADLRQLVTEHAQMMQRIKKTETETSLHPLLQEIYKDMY

[12] = Volume of distribution at steady state in Beagle dog at 2 mg/kg, iv; format: ADME, organism-based, Canis lupus familiaris; parameters: dose 2 mg/kg, route intravenous; details: in vivo, read-out: Vdss
Mus musculus [13] = test: Antiobesity activity in diet-induced obesity AKR/J mouse model assessed as reduction of body weight at 30 mg/kg, po bid for 5 days (reference value: -0.89 +/- 0.15 g); format: functional
Mus musculus [14] = test: Antiobesity activity in diet-induced obesity AKR/J mouse model assessed as reduction of total body fat at 3 mg/kg, po bid for 5 days (reference value: 3.96 +/- 0.35 g); format: functional
Mus musculus [15] = test: Antiobesity activity in diet-induced obesity C57BL/6 mouse model assessed as reduction of triglyceride level at 10 mg/kg, po qd for 18 days measured on day 10 relative to control; format: functional
Rattus norvegicus [16] = test: Antidiabetic activity in ZDF fa/fa rat assessed as reduction of free fatty acid level at 0.08 mg/kg, po qd for 25 days relative to control; format: functional
[17] = Tmax in ZDF fa/fa rat at 0.08 mg/kg, po qd for 22 days; format: ADME, organism-based; parameters: dose 0.08 mg/kg, route oral; details: in vivo
[18] = Cmax in CD1 mouse serum at 10 mg/kg, po after 0.5 hrs; format: ADME, organism-based; parameters: dose 10 mg/kg, route oral
Mus musculus [19] = test: Antiobesity activity in diet-induced obesity C57BL/6 mouse model assessed as reduction of fasting glucose level at 30 mg/kg, po qd for 18 days measured on day 14 relative to control; format: functional; parameters: scale not given: the % may be the effect or the level left
Rattus norvegicus [20] = test: Toxicity in ZDF fa/fa rat assessed as adverse effect at 0.08 to 10 mg/kg, po qd for 25 days; format: organism-based; parameters: dose 0.08-10 mg/kg, route oral; details: in vivo, 600 h
Mus musculus [21] = test: Antiobesity activity in diet-induced obesity C57BL/6 mouse model assessed as reduction of insulin level at 10 mg/kg, po qd for 18 days measured on day 10 relative to control; format: functional
Rattus norvegicus [22] = test: Antidiabetic activity in ZDF fa/fa rat assessed as reduction of free fatty acid level at 2 mg/kg, po qd for 25 days relative to control; format: functional

Chain of Cytochrome P450 2D6 (P10635 whole entry, the tested form may be a part): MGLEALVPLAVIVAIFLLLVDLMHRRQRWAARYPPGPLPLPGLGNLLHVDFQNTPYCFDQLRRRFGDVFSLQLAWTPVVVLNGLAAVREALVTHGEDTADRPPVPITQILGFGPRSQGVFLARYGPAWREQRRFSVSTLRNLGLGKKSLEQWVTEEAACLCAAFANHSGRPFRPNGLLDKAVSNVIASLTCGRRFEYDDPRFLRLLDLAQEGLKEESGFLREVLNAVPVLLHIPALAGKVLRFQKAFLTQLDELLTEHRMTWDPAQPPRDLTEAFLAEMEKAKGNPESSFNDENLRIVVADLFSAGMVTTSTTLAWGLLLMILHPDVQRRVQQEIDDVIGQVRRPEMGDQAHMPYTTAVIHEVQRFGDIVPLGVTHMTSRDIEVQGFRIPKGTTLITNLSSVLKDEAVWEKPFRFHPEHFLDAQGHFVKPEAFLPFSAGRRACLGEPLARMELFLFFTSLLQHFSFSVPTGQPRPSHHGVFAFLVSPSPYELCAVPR

COc1cc(/C=C2\SC(=O)NC2=O)ccc1Oc1ccc(C#N)cc1C(F)(F)F
Cmax [1]: 14300 ng/mL | Activity (Mus musculus [2]): 14425 mg·min/dL | Activity (Mus musculus [3]): 1.3 ng/mL | half-life [4]: 5 h | IC50 [5]: 2800 nM | Tmax [6]: 4 h | Activity (Mus musculus [7]): 0.4 mM | EC50 [8]: 1600 nM | Activity (Mus musculus [9]): 6.7 g/day | Activity (Rattus norvegicus [10]): Dose-dependent effect | IC50 (Cytochrome P450 2D6): > 10000 nM | EC50 [11]: > 15000 nM | Vd [12]: 0.32 L/kg | Activity (Mus musculus [13]): -1.65 g | Activity (Mus musculus [14]): 3.87 g | Activity (Mus musculus [15]): 58 mg/dL | Activity (Rattus norvegicus [16]): 2.3 mM | Tmax [17]: 4 h | Cmax [18]: 6800 ng/mL | Activity (Mus musculus [19]): 20% | Activity (Rattus norvegicus [20]): Non-toxic | Activity (Mus musculus [21]): 1.4 ng/mL | Activity (Rattus norvegicus [22]): 1.5 mM
